In patent US20250382250A1, “STILBENE DERIVATIVE AS AHR AGONIST AND USE THEREOF” (NANJING GRITPHARMACO., LTD., priority 2022, published 2025):
Marks after values point to notes of the source that are not given here.

Assays:
[1] = biological target: T1, AhR (Homo sapiens, UniProt P35869); experiment: AhR agonism luciferase reporter gene assay in transfected HepG2 cells; type: cell-based; details: 16 h, ratio of treatment group to blank
T1 construct: expressed in transfected cells; host or cells: HepG2
T1 sequence (P35869 11-848): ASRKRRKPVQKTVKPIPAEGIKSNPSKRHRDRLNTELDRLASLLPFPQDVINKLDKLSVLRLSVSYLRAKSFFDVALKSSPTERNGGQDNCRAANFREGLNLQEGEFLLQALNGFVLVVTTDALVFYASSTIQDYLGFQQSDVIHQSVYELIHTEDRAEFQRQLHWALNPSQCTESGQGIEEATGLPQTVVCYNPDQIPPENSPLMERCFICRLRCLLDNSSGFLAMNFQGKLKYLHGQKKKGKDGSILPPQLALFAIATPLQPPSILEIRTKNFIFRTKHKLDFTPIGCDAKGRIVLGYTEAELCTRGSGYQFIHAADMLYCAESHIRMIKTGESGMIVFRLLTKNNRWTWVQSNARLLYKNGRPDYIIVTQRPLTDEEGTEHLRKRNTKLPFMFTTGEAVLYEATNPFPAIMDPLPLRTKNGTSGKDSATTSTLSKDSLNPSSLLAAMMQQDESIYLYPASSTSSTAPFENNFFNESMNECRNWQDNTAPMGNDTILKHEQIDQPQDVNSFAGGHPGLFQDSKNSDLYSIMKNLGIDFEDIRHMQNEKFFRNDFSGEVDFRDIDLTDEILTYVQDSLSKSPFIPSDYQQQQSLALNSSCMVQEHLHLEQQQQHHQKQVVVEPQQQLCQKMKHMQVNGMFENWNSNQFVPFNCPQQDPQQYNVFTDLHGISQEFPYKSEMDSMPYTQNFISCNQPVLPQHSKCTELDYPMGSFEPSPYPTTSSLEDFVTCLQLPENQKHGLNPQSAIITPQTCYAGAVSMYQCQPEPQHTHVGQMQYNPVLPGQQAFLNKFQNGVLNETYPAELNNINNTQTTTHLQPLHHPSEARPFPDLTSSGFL
Description: When the cell confluence reached 80%, the culture medium was replaced with a fresh one, and the transfection working solution was added for transfection overnight. The formula of the working solution is as follows: 1 mL of Opti-MEM+7.5 μg of pCMV-AHR+7.5 μg of pTK-3×DRE-Luc+30 μL of lipo6000. • (2) Cell plating: The transfected cells were digested, prepared into a cell suspension at a concentration of 3×10^5 cells/mL, and then plated on a 96-well plate at 100 µL/well for adherent culture overnight. • (3) Formulation
The prepared drug-containing culture media and a blank culture medium were added to the 96-well plate described above at 100 μL/well.

[2] = test system: TNFa; experiment: Regulatory effect on cytokine secretion in PHA-stimulated PBMCs: TNFa; type: cell-based; details: for TNFa: PBMCs, 15 μg/mL PHA, 24 h (PHA group 3649.21)
Description: (§1) • (1) Cells: […]; • (2) Cell plating and treatment: After the PBMCs were taken out from the liquid nitrogen tank and thawed, 80 μL of culture medium was added to a 96-well plate, and the cells were added at 200,000 cells/well. The culture media containing 2 μM or 0.2 μM compound 2 #, compound 6 #, or reference 1 # were added to the 96-well plate at 80 μL, at a final drug concentration of 1 μM or 0.1 μM per well. The plate was let stand for 1 h for pretreatment. After the pretreatment, the drug-containing medium was discarded, and 1 μM or 0.1 μM solution containing 15 μg/mL PHA (phytohemaggluyinin) was added at 80 μL/well. After 24 h of stimulation, the content of cytokines in the culture medium was detected. • Blank control group: The cells were treated with a normal culture medium with no drugs; • PHA group: A culture medium containing 15 μg/mL PHA but no compounds of the present disclosure was added at 80 μL/well.

[3] = test system: IL4; experiment: Regulatory effect on cytokine secretion in PHA-stimulated PBMCs: IL4; type: cell-based; details: for IL4: PBMCs, 15 μg/mL PHA, 24 h (PHA group 9.42)
Description: as §1

[4] = test system: atopic dermatitis; experiment: DNFB-induced atopic dermatitis mouse model (AD Score); type: in vivo, BALB/C mice; design: scale not given here; details: DNFB mice
Description: 56 clean-grade BALB/C mice aged 6-8 weeks were subjected to 5 days of adaptive feeding and then randomized into 7 groups of 8 mice each: • A. Blank control group • B. Modeling+solvent group • C. Modeling+blank matrix group • D. Modeling+positive drug mometasone furoate group • E. Modeling+1 wt % of benvitimod group • F. […] The animal experiments were conducted in accordance with the Experimental Animal Feeding, Management and Use Guidelines of China Pharmaceutical University and in compliance with animal study ethics and regulations. As shown in the above procedures, the solvent control or DNFB was given in the morning for modeling; from day 5, the test compound ointment was administered once every afternoon at 50 mg/dose evenly on the skin surface. The specific administration method is as shown above; Specific procedures: […] Severity of atopic dermatitis was scored using the AD Score criteria The severity of the appearance of dermatitis was evaluated based on 4 indicators: A. erythema/bleeding; B. dryness; C. effusion/crusting; D. edema.

[5] = Drug permeation rate test, in vitro diffusion through semipermeable membrane; type: in vitro ADME; details: ointments: 2# 1.2 wt %, 6# 1.2 wt %, benvitimod 1.0 wt %, 32° C.
Description: (§2) Test compounds: compound 2 #ointment, 1.2 wt %; compound 6 #ointment, 1.2 wt %; benvitimod ointment, 1.0 wt %;
[drawing 90] • (1) Preparation of semipermeable membrane: The semipermeable membrane, which had been prepared in advance, was taken out from the refrigerator; • (2) Preparation of receiving liquid: 100 mL of polyethylene glycol 400 solution was brought to a final volume of 250 mL with normal saline. The mixture was mixed well and stored at 4° C. Before each permeation in the receiving compartment, the system was preheated to 32° C.; • (3) In vitro diffusion test: A drug transdermal diffusion apparatus was used to fix the processed semipermeable membrane between the supply and receiving compartments. A constant temperature water bath circulation at 32° C. was maintained. The system was equilibrated for 30 min. Upon each replacement of the receiving liquid, the air at the lower layer was exhausted. About 0.5 g of the ointment was evenly smeared in the supply compartment. The system was stirred with a magnetic stirring at a rotation speed of 600 r/min. At 0.5, 1, 2, 4, 6, and 24 h, 1 mL of sample liquid was taken out from the receiving compartment, and simultaneously, an equal amount of fresh receiving liquid at the same temperature was added;
The sampling time points were 0.5, 1, 2, 4, 6, and 24 h, and 1 mL of sample was directly transferred into a liquid phase vial. Simultaneously, an equal amount of fresh receiving liquid at the same temperature was added. The liquid phase detection was conducted to calculate the drug permeation rate.

[6] = Ointment diffusion test, ex vivo rabbit skin; type: in vitro ADME; details: ointments: 2# 1.2 wt %, 6# 1.2 wt %, benvitimod 1.0 wt %, 32° C.
Description: as §2
• (1) Preparation of ex vivo rabbit skin • (2) Preparation of receiving liquid: 100 mL of polyethylene glycol 400 solution was brought to a final volume of 250 mL with normal saline. The mixture was mixed well and stored at 4° C. Before each permeation in the receiving compartment, the system was preheated to 32° C. • (3) In vitro transdermal test: A drug transdermal diffusion apparatus was used to fix the processed rabbit skin between the supply and receiving compartments, with the stratum corneum facing the supply compartment. A constant temperature water bath circulation at 32° C. was maintained. The system was equilibrated for 30 min. Upon each replacement of the receiving liquid, the air at the lower layer was exhausted, and the liquid droplets on the skin surface were removed with paper. 0.5 g of the ointment was evenly smeared in the supply compartment. The system was stirred with a magnetic stirring at a rotation speed of 600 r/min. At 0.5, 1, 2, 3, 4, 5, 7, 9, 12, and 24 h, 1 mL of sample liquid was taken out from the receiving compartment and transferred into a liquid phase vial, and simultaneously, an equal amount of fresh receiving liquid at the same temperature was added. The liquid phase detection was conducted to calculate the drug permeation rate.

## Oc1cc(/C=C/c2ccc(F)cc2)cc(O)c1C1CCCC1 [Compound 2, (E)-2-cyclopentyl-5-(4-fluorostyryl)-1,3-benzenediol]
[1]; drug concentration 0.1 μM
  AhR receptor agonistic fold: 6.1 ± 0.6 fold
[1]; drug concentration 1 μM
  AhR receptor agonistic fold: 37.9 ± 6.9 fold
[2]; 0.1 μM
  TNFa: 1353.72 pg/mL
[2]; 1 μM
  inhibitory effect on TNFa relative to reference 1# (benvitimod): 2 folds
  TNFa: 941.41 pg/mL
[3]; 0.1 μM
  IL4: 5.19 pg/mL
[3]; 1 μM
  inhibitory effect on IL4 relative to reference 1# (benvitimod): 2 folds
  IL4: 4.30 pg/mL
[4]; day 0, before ointment treatment (from day 5)
  Back AD score: 0.00 ± 0.00
[4]; day 4, before ointment treatment (from day 5)
  Back AD score: 3.19 ± 0.75
[4]; day 6, ointment 50 mg once daily from day 5 (1.2 wt % 2#/6#, 1 wt % benvitimod)
  Back AD score: 5.63 ± 1.96
[4]; day 8, ointment 50 mg once daily from day 5 (1.2 wt % 2#/6#, 1 wt % benvitimod)
  Back AD score: 6.13 ± 1.96**^aab
[4]; day 10, ointment 50 mg once daily from day 5 (1.2 wt % 2#/6#, 1 wt % benvitimod)
  Back AD score: 5.31 ± 1.87**^aab
[5]
  24-hour drug permeation rate (rank order): benvitimod >2 #>6 #
[6]
  24-hour drug permeation rate (rank order): benvitimod >2 #>6 #
